Test results reported in patent US6914045B2, “Glycopeptide antibiotics” (Wyeth Holdings Corporation, priority 2001, dated 2005).
Values after ≈ are worked out from the molar mass of the structure shown.

Columns and labels:
Test in all cases: in vitro antibacterial evaluation, MIC by broth dilution
Format in all cases: cell-based
Streptococcus sp. = conditions: broth dilution, 18 hours at 35° C.
In short: (§1)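 Broth dilution per NCCLS standard M7-A2 in Muller-Hinton II […], with an inoculum of 5×10^5 CFU/mL and antibiotic spanning 64-0.06 μg/mL. The MIC is the lowest concentration that inhibits growth of the organism.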

Enterococcus sp. = conditions: broth dilution, 18 hours at 35° C.
In short: as §1

Staphylococcus sp. = conditions: broth dilution, 18 hours at 35° C.
In short: as §1

Escherichia coli = conditions: 18 hours at 35° C.

CC(c1ccccc1)C1NC(=O)CNC(=O)C(CO)NC(=O)C(C(O)C2CN(c3nc4ccccc4o3)C(=N)N2C2OC(CO)C(O)C(O)C2O)NC(=O)C(C(O)C2CNC(=Nc3nc4ccccc4o3)N2)NC(=O)C(Cc2ccc(OC3OC(CO)C(OC4OC5COC6(OC5C(O)C4O)C4CC5CC(C4)CC6C5)C(O)C3O)cc2)NC1=O (stereo not drawn) [Example 227]
MIC Streptococcus agalactiae (GC 4564) (Streptococcus sp.): 4 µg/mL (≈ 2.41 µM) | MIC Streptococcus pneumoniae (ATCC 6301) (Streptococcus sp.): 32 µg/mL (≈ 19.3 µM) | MIC Streptococcus pneumoniae (GC 1894) (Streptococcus sp.): 32 µg/mL (≈ 19.3 µM) | MIC Streptococcus pneumoniae (GC 4565) (Streptococcus sp.): 64 µg/mL (≈ 38.5 µM) | MIC Streptococcus pyogenes (GC 4563) (Streptococcus sp.): 32 µg/mL (≈ 19.3 µM) | MIC Streptococcus pneumoniae (ATCC 6301) (Streptococcus sp.; inoculum 5×10^5 CFU/mL, strain ATCC 6301): 32 µg/mL (≈ 19.3 µM) | MIC Streptococcus pneumoniae (GC 1894) (Streptococcus sp.; inoculum 5×10^5 CFU/mL, strain GC 1894): 32 µg/mL (≈ 19.3 µM) | MIC Streptococcus pyogenes (GC 4563) (Streptococcus sp.; inoculum 5×10^5 CFU/mL, strain GC 4563): 32 µg/mL (≈ 19.3 µM) | MIC Streptococcus agalactiae (GC 4564) (Streptococcus sp.; inoculum 5×10^5 CFU/mL, strain GC 4564): 64 µg/mL (≈ 38.5 µM) | MIC Streptococcus pneumoniae (GC 4565) (Streptococcus sp.; inoculum 5×10^5 CFU/mL, strain GC 4565): 64 µg/mL (≈ 38.5 µM) | MIC Enterococcus avium (GC 4558) (Enterococcus sp.): 8 µg/mL (≈ 4.81 µM) | MIC Enterococcus faecalis (ATCC 29212) (Enterococcus sp.): 64 µg/mL (≈ 38.5 µM) | MIC Enterococcus faecalis (GC 2242) (Enterococcus sp.): 64 µg/mL (≈ 38.5 µM) | MIC Enterococcus faecalis (GC 2691) (Enterococcus sp.): 64 µg/mL (≈ 38.5 µM) | MIC Enterococcus faecalis (GC 3059) (Enterococcus sp.): 128 µg/mL (≈ 77 µM) | MIC Enterococcus faecalis (GC 4552) (Enterococcus sp.): 64 µg/mL (≈ 38.5 µM) | MIC Enterococcus faecalis (GC 4553) (Enterococcus sp.): 8 µg/mL (≈ 4.81 µM) | MIC Enterococcus faecalis (GC 4554) (Enterococcus sp.): 128 µg/mL (≈ 77 µM) | MIC Enterococcus faecalis (GC 6189) (Enterococcus sp.): 64 µg/mL (≈ 38.5 µM) | MIC Enterococcus faecium (GC 2243) (Enterococcus sp.): 32 µg/mL (≈ 19.3 µM) | MIC Enterococcus faecium (GC 4556) (Enterococcus sp.): 64 µg/mL (≈ 38.5 µM) | MIC Enterococcus faecium (GC 4557) (Enterococcus sp.): 8 µg/mL (≈ 4.81 µM) | MIC Enterococcus faecalis (ATCC 29212) (Enterococcus sp.; inoculum 5×10^5 CFU/mL, strain ATCC 29212): 64 µg/mL (≈ 38.5 µM) | MIC Enterococcus faecalis (GC 2242) (Enterococcus sp.; inoculum 5×10^5 CFU/mL, strain GC 2242): 64 µg/mL (≈ 38.5 µM) | MIC Enterococcus faecium (GC 2243) (Enterococcus sp.; inoculum 5×10^5 CFU/mL, strain GC 2243): 32 µg/mL (≈ 19.3 µM) | MIC Enterococcus faecalis (GC 2691) (Enterococcus sp.; inoculum 5×10^5 CFU/mL, strain GC 2691): 64 µg/mL (≈ 38.5 µM) | MIC Enterococcus faecalis (GC 3059) (Enterococcus sp.; inoculum 5×10^5 CFU/mL, strain GC 3059): 128 µg/mL (≈ 77 µM) | MIC Enterococcus faecalis (GC 4552) (Enterococcus sp.; inoculum 5×10^5 CFU/mL, strain GC 4552): 64 µg/mL (≈ 38.5 µM) | MIC Enterococcus faecalis (GC 4553) (Enterococcus sp.; inoculum 5×10^5 CFU/mL, strain GC 4553): 8 µg/mL (≈ 4.81 µM) | MIC Enterococcus faecalis (GC 4554) (Enterococcus sp.; inoculum 5×10^5 CFU/mL, strain GC 4554): 128 µg/mL (≈ 77 µM) | MIC Enterococcus faecium (GC 4556) (Enterococcus sp.; inoculum 5×10^5 CFU/mL, strain GC 4556): 64 µg/mL (≈ 38.5 µM) | MIC Enterococcus faecium (GC 4557) (Enterococcus sp.; inoculum 5×10^5 CFU/mL, strain GC 4557): 8 µg/mL (≈ 4.81 µM) | MIC Enterococcus avium (GC 4558) (Enterococcus sp.; inoculum 5×10^5 CFU/mL, strain GC 4558): 8 µg/mL (≈ 4.81 µM) | MIC Enterococcus faecalis (GC 6189) (Enterococcus sp.; inoculum 5×10^5 CFU/mL, strain GC 6189): 64 µg/mL (≈ 38.5 µM) | MIC Coagulase Negative Staphylococcus (GC 4547) (Staphylococcus sp.): 32 µg/mL (≈ 19.3 µM) | MIC Coagulase Negative Staphylococcus (GC 4548) (Staphylococcus sp.): 4 µg/mL (≈ 2.41 µM) | MIC Coagulase Negative Staphylococcus (GC 4549) (Staphylococcus sp.): 32 µg/mL (≈ 19.3 µM) | MIC Coagulase Negative Staphylococcus (GC 4551) (Staphylococcus sp.): 8 µg/mL (≈ 4.81 µM) | MIC Staphylococcus aureus-SMITH (GC 4543) (Staphylococcus sp.): 128 µg/mL (≈ 77 µM) | MIC Staphylococcus haemolyticus (GC 4546) (Staphylococcus sp.): 64 µg/mL (≈ 38.5 µM) | MIC Staphylococcus aureus-SMITH (GC 4543) (Staphylococcus sp.; strain GC 4543): 128 µg/mL (≈ 77 µM) | MIC Staphylococcus haemolyticus (GC 4546) (Staphylococcus sp.; strain GC 4546): 64 µg/mL (≈ 38.5 µM) | MIC Coagulase Negative Staphylococcus (GC 4547) (Staphylococcus sp.; strain GC 4547): 32 µg/mL (≈ 19.3 µM) | MIC Coagulase Negative Staphylococcus (GC 4548) (Staphylococcus sp.; strain GC 4548): 4 µg/mL (≈ 2.41 µM) | MIC Coagulase Negative Staphylococcus (GC 4549) (Staphylococcus sp.; strain GC 4549): 32 µg/mL (≈ 19.3 µM) | MIC Coagulase Negative Staphylococcus (GC 4551) (Staphylococcus sp.; strain GC 4551): 8 µg/mL (≈ 4.81 µM) | MIC Staphylococcus aureus (ATCC 29213) (Staphylococcus sp.; strain ATCC 29213): 128 µg/mL (≈ 77 µM) | MIC Staphylococcus aureus (GC 1131) (Staphylococcus sp.; strain GC 1131): 128 µg/mL (≈ 77 µM) | MIC Staphylococcus aureus (GC 3051) (Staphylococcus sp.; strain GC 3051): 128 µg/mL (≈ 77 µM) | MIC Staphylococcus aureus (GC 3053) (Staphylococcus sp.; strain GC 3053): >128 µg/mL | MIC Staphylococcus aureus (GC 4541) (Staphylococcus sp.; strain GC 4541): 128 µg/mL (≈ 77 µM) | MIC Staphylococcus aureus (GC 4542) (Staphylococcus sp.; strain GC 4542): 128 µg/mL (≈ 77 µM) | MIC Staphylococcus aureus (GC 4544) (Staphylococcus sp.; strain GC 4544): 128 µg/mL (≈ 77 µM) | MIC Staphylococcus aureus (GC 4545) (Staphylococcus sp.; strain GC 4545): 128 µg/mL (≈ 77 µM) | MIC Escherichia coli (ATCC 25922) (Escherichia coli): >128 µg/mL | MIC Escherichia coli (GC 4559) (Escherichia coli): >128 µg/mL | MIC Escherichia coli (GC 4560) (Escherichia coli): 8 µg/mL (≈ 4.81 µM)
